Data on 31 compounds can be found in PubChem BioAssay (NCI).

Values joined by “and” are separate entries in the source; they are usually repeats but may differ in a detail not shown here. Equal values may be shown once.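 Growth conditions: 96-well plates. Treatment: test compound, 48 hours, 5 concentrations. Analysis: linear interpolation between bracketing concentrations; unreached endpoints set to highest concentration. GI50 marks 50% less growth. TGI marks complete inhibition of growth.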

What all share (experiment): growth of human tumour cells (NCI), 48 h
Assay [1] has as its system EKVX NSCLC.
For assay [2], the system named is SF-539 CNS.
The test system of assay [3] is CAKI-1 renal.
For assay [4], the system named is MALME-3M melanoma.
For assay [5], the system named is OVCAR-8 ovarian.
In assay [6] the test system is HL-60(TB) leukemia.
The test system of assay [7] is MOLT-4 leukemia.
Assay [8] has as its system NCI/ADR-RES ovarian.
Assay [9] has as its system DU-145 prostate.

In the case of `O=C(CC1(O)C(=O)Nc2c(Cl)ccc(Cl)c21)c1ccc(Cl)cc1` (centres undefined), the TGI is more than 100 µM in assay [1]; 50.6 µM in [2]; more than 100 µM in [3]; 71.8 µM in [4]; 42.1 µM in assay [5].
As to `O=C(/C=C(\[O-])c1ccccc1)CCCCCCC(=O)/C=C(\[O-])c1ccccc1.O=C(/C=C(\[O-])c1ccccc1)CCCCCCC(=O)/C=C(\[O-])c1ccccc1.O=C(/C=C(\[O-])c1ccccc1)CCCCCCC(=O)/C=C(\[O-])c1ccccc1.[Y+3].[Y+3]`, the GI50 was more than 50 µM in assay [1]; 31.8 µM in assay [2]; more than 50 µM in assay [3]; more than 50 µM in [4]; 37.4 µM in [5]; 14 µM in assay [6]. Moreover, the GI50 in assay [7] was 26.9 µM. In addition, the TGI in assay [1], in [2], in assay [3], in [4], in assay [5] and in [6] was more than 50 µM each time. The same compound displayed a TGI in assay [7] of more than 50 µM.
Turning to `CN(C)c1ccc(/C=c2/sc3nc(=O)c(-c4ccccc4NC(=O)C(F)(F)F)nn3c2=O)cc1`, the TGI in assay [1], in assay [2], in [3], in assay [4], in assay [5] and in [7] was more than 100 µM each time.
Consider `C/C(=C\c1ccccc1)C(O)C(=O)c1nc2ccc(Cl)cc2[nH]c1=O` (centres undefined), for which the TGI in assay [1], in assay [2], in assay [3], in assay [4], in assay [5] and in [6] was more than 100 µM throughout. Besides, the TGI in [7] is more than 100 µM.
On to `CCCCC(C(=O)C(=O)Nc1ccccc1CC)C(=O)C(C)C` (centres undefined), for which the TGI in [1], in assay [2], in assay [3], in assay [4], in [5] and in [6] was more than 100 µM in each case. For the same compound, in assay [7], the TGI was more than 100 µM.
In the case of `CC(=O)NC(CCCNC(=O)OCc1ccccc1)C(=O)NCc1ccccc1` (centres undefined), the TGI in assay [1], in [2], in [3], in assay [4], in [5] and in [7] was more than 100 µM each time.
Take `O=[N+]([O-])c1ccc(/C=C/c2ccc(/C=C/c3ccc([N+](=O)[O-])cc3[N+](=O)[O-])cc2)c([N+](=O)[O-])c1`: the TGI in assay [1], in assay [2], in assay [3], in assay [4], in [5] and in assay [6] was more than 100 µM throughout. In assay [7], this compound returned a TGI of more than 100 µM.
Take `N#CC1(CCCCl)CCCCC1`: the TGI in assay [1], in [2], in [4], in assay [5], in [6] and in assay [7] was more than 100 µM throughout.
For `CCOC(=O)C1C(NC(N)=O)N(Cc2ccccc2)C(=O)N1Cc1ccccc1` (centres undefined), the TGI in assay [1], in [2], in assay [3], in assay [4], in assay [5] and in [6] was more than 100 µM throughout. In addition, the TGI in [7] is more than 100 µM.
For the compound `CN(C)c1ccc(/C=N/N=C(\C#N)[S][Sn]([Cl])([c]2ccccc2)[c]2ccccc2)cc1`, the GI50 in assay [1] was 1.67 µM; in [2], 1.7 µM; in assay [3], 1.27 µM; in assay [4], 1.74 µM; in assay [5] it was 2.15 µM; in [8], 2.01 µM. Also, the figures for the GI50 in assay [6] and in assay [7] were 0.548 µM and 0.876 µM, respectively. In addition, the TGI in [1] amounted to 4.12 µM; in [2], 3.3 µM; in assay [3], 2.56 µM; in [4] it was 3.6 µM; in assay [5], 4.91 µM; in assay [8], 4.76 µM. The TGI turned out to be 5.16 µM in assay [6] and 5.32 µM in assay [7].
As to `COc1cc2c(cc1OCCN1CCN(CCN3C(=O)c4cccc5cccc(c45)C3=O)CC1)N=C[C@@H]1CCCN1C2=O`, the GI50 was 21.1 µM in assay [1]; 16.9 µM in assay [9]; 20.8 µM in assay [2]; 13.6 µM in assay [3]; 19.9 µM in assay [5]; 11.9 µM in assay [8]. Further, the GI50 in [7] is 24.6 µM. The TGI in assay [1] came to 45.7 µM; in [9] it was 30.6 µM; in assay [2], 45.6 µM; in [3] it was 30.2 µM; in [5] it was 44.3 µM; in assay [8], 28.2 µM. In assay [7], this compound had a TGI of 62.2 µM.
As for `N#Cc1c(CC(=O)O)cc(=O)n2c1[nH]c1ccccc12`, the TGI in [1], in [2], in [3], in assay [4], in assay [5] and in [6] was more than 100 µM in each case. The TGI in [7] is more than 100 µM.
Consider `O/N=C1/C(=C/c2ccc(OCc3ccccc3)cc2)CCCC1C(NO)c1ccc(OCc2ccccc2)cc1` (centres undefined), for which the TGI in assay [1] was more than 100 µM; in [2], more than 100 µM; in [3], 73.8 µM; in assay [4], more than 100 µM; in assay [5] it was more than 100 µM; in assay [6] it was more than 100 µM. The compound also displayed a TGI in assay [7] of more than 100 µM.
Turning to `CCCCCNC(=O)CCCCCCCCCCCNC(=O)CCCCCCCCCCN1C=CC(=CC=C2C=CC(=O)C=C2)C=C1`, the TGI in assay [1] is more than 100 µM; in assay [2] it was more than 100 µM; in [3] it was more than 100 µM; in assay [4], more than 100 µM; in assay [5] it was more than 100 µM; in assay [6] it was 8.83 µM. The TGI in assay [7] was more than 100 µM.
For the compound `CC(C)(C)C1CCC(O)(c2ccccc2)CC1` (centres undefined), the TGI in assay [1] was > 100 µM and 75.3 µM; in assay [2], > 100 µM and 45.4 µM; in [4] it was > 100 µM and 63.2 µM; in assay [5], > 100 µM and 46.9 µM; in assay [6], 66.8 µM and 32.5 µM; in assay [7], > 100 µM and 39.5 µM.
Regarding `COc1ccc(C(C)Nc2cc(OC)c(OC)c(OC)c2)cc1` (centres undefined), the TGI in assay [1] is more than 100 µM; in assay [2] it was 12.8 µM; in assay [3], more than 100 µM; in assay [4] it was more than 29.7 µM; in [5] it was more than 100 µM; in assay [6], 5.81 µM. In assay [7], this compound registered a TGI of more than 100 µM.
With `Cc1ccccc1NC(=O)CC(=O)NNCC(=O)Nc1nnc(-c2ccccc2)s1`, the TGI in assay [1] was more than 100 µM; in assay [2], more than 100 µM; in [3], more than 100 µM; in [5] it was more than 100 µM; in assay [6] it was 85.3 µM; in [7], more than 100 µM.
With `COC(=O)C1CC(=O)O[C@H]1c1ccc(OC)c(OC)c1` (some centres undefined), the TGI in assay [1], in [2], in assay [3], in [4], in assay [5] and in assay [6] was more than 100 µM in each case. In assay [7], the TGI is more than 100 µM.
Consider `CNS(=O)(=O)NNS(=O)(=O)c1ccc(C)cc1`, for which the TGI in assay [1], in assay [2], in assay [3], in assay [4], in [5] and in assay [6] was more than 100 µM throughout. For the same compound, the TGI in [7] is more than 100 µM.
Take `COC1=CC(=O)C(O)=C(CC2(C)C(C)CCC3(C)C2CCCC3(C)C)C1=O` (centres undefined): the TGI in assay [1] worked out at 69.7 µM; in assay [2], 9.49 µM; in assay [3], 16.7 µM; in assay [4], 13.4 µM; in assay [5] it was 26.2 µM; in assay [6], 8.53 µM. The same compound registered a TGI in [7] of 18.5 µM.
For `Nc1ccccc1C(=O)/C=C/c1ccccc1O`, the TGI is more than 100 µM in [1]; more than 100 µM in assay [2]; more than 100 µM in [3]; more than 100 µM in [4]; more than 100 µM in assay [5]; 58.8 µM in assay [6]. The TGI in [7] was more than 100 µM.
As to `COC(=O)N/N=C(\C)c1sc(-c2nc(C)c(/C(C)=N/NC(=O)OC)s2)nc1C`, the TGI in [1], in assay [2], in assay [3], in assay [4], in [5] and in assay [6] was more than 100 µM each time. This compound yielded a TGI in assay [7] of more than 100 µM.
Consider `ON1CCc2c([nH]c3ccccc23)C1c1ccc(Cl)cc1` (centres undefined), for which the TGI in assay [1] is more than 100 µM; in assay [2], more than 100 µM; in assay [4], 77.6 µM; in [5] it was more than 100 µM; in assay [6], 79.5 µM; in [7] it was 79.7 µM.
`CC(C)(C)C1CC[C@H]2c3c([nH]c4ccccc34)[C@H]3C(=O)N(c4ccc(F)cc4)C(=O)[C@H]3[C@H]2C1` (some centres undefined): the TGI in assay [1] is 36.9 µM; in [2] it was 35.9 µM; in [3], 32.5 µM; in [4] it was 36.8 µM; in assay [5] it was 25.2 µM; in assay [7] it was 27.8 µM.
Consider `COc1cc2c(Oc3ccc(-c4cnc(Nc5ccc(F)cc5)n(C)c4=O)cc3F)ccnc2cc1OCCCN1CCOCC1`, for which the GI50 in [9] was 1.56 µM; in assay [2] it was 0.464 µM; in [3], 1.05 µM; in assay [4], 0.291 µM; in [5] it was 1.87 µM; in assay [8] it was 1.94 µM. Moreover, the TGI worked out at 3.17 µM in [9]; 1.62 µM in assay [2]; 2.46 µM in assay [3]; 1.41 µM in assay [4]; 4.72 µM in assay [5]; 6.75 µM in assay [8].
With `CN(C)c1ccc(/C=C2\CCc3ccccc3C2=O)cc1Br`, the TGI in assay [1] is more than 100 µM; in assay [2], more than 100 µM; in assay [3], more than 100 µM; in [4], more than 100 µM; in [5] it was more than 100 µM; in assay [6], 58.5 µM. Further, the TGI in [7] was more than 100 µM.
For the compound `CN(C)CCNC(=O)c1cccc2c1nc(-c1cccnc1)c1ccccc12`, the TGI stood at 18.8 µM in assay [1]; 10.7 µM in assay [2]; 85.7 µM in assay [3]; 54.8 µM in assay [5]; 28.8 µM in assay [6]; 6.32 µM in assay [7].
For `CC(C)CCCC(C)C1CCC2C3CC([N+](=O)[O-])=C4CC(O)CCC4(C)C3CCC12C` (centres undefined), the TGI in assay [1] is 57.2 µM; in [2] it was 28.9 µM; in [3], 66 µM; in [4], 39.2 µM; in [5] it was 47.4 µM; in assay [6], 60.6 µM. Moreover, in [7], the TGI was determined as 88.2 µM.
On to `O=C1c2ccccc2C2(O)N(c3ccccc3)C(=S)N(c3ccccc3)C12O` (centres undefined), for which the TGI in assay [1], in assay [2], in assay [3], in [4], in assay [5] and in assay [7] was more than 100 µM throughout.
Turning to `Cc1ccccc1NC(=O)C1C(=O)N(c2ccccc2C)C(=O)/C1=N\NC(N)=O` (centres undefined), the TGI in assay [1], in assay [2], in assay [3], in [4], in assay [5] and in assay [6] was more than 100 µM in each case. The same compound gave a TGI in assay [7] of more than 100 µM.
In the case of `O=c1c2cc(Br)ccc2nc(CNc2ccccc2)n1-c1ccccc1`, the TGI was 40.7 µM in [1]; 32.7 µM in assay [2]; 11.6 µM in assay [3]; 28.4 µM in [4]; more than 57 µM in [5]; 39.7 µM in [6]. In assay [7], this compound gave a TGI of more than 67.7 µM.
